According to PubChem BioAssay (NCI):
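Method: 48-hour compound exposure of cells in 96-well plates, five concentrations, linear interpolation of endpoints. GI50 is the concentration that inhibits growth by half. TGI: total growth inhibition.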

Experiments:
Test in all cases: DTP human tumour cell line panel, 48 h
A498 renal = test system: A498 renal
ACHN renal = test system: ACHN renal
COLO 205 colon = test system: COLO 205 colon
LOX IMVI melanoma = test system: LOX IMVI melanoma
MALME-3M melanoma = test system: MALME-3M melanoma
MDA-MB-435 = test system: MDA-MB-435
NCI-H23 lung = test system: NCI-H23 lung
PC-3 prostate = test system: PC-3 prostate
SF-295 CNS = test system: SF-295 CNS
SW-620 colon = test system: SW-620 colon

| Compound | GI50 (A498 renal) [µM] | TGI (A498 renal) [µM] | GI50 (ACHN renal) [nM] | TGI (ACHN renal) [µM] | GI50 (COLO 205 colon) [nM] | TGI (COLO 205 colon) [µM] | GI50 (LOX IMVI melanoma) [nM] | TGI (LOX IMVI melanoma) [µM] | GI50 (MALME-3M melanoma) [nM] | TGI (MALME-3M melanoma) [µM] | GI50 (MDA-MB-435) [nM] | TGI (MDA-MB-435) [µM] | GI50 (NCI-H23 lung) [nM] | TGI (NCI-H23 lung) [µM] | GI50 (PC-3 prostate) [nM] | TGI (PC-3 prostate) [µM] | GI50 (SF-295 CNS) [µM] | TGI (SF-295 CNS) [µM] | GI50 (SW-620 colon) [nM] | TGI (SW-620 colon) [µM] |
| --- | --- | --- | --- | --- | --- | --- | --- | --- | --- | --- | --- | --- | --- | --- | --- | --- | --- | --- | --- | --- |
| CNC(=O)c1ccc(N2CCN(Cc3ccc4nc(C)c(=O)[nH]c4c3F)CC2)c(F)n1 | > 100 | > 100 | > 100000 | > 100 | > 100000 | > 100 | > 100000 | > 100 | > 100000 | > 100 | > 100000 | > 100 | 70600 | > 100 | > 100000 | > 100 | 48.5 | > 100 | > 100000 | > 100 |
| C#CCOc1cccc(-c2ncnc3cc(NC(=O)CCl)ccc23)c1 | 3.83 | 15.9 | 419 | 2.06 | 97.6 | 2.77 | 38.5 | 1.34 | 1280 | 3.59 | 993 | 2.92 | 886 | 3.14 | 813 | 4.84 | 2.44 | 9.25 | 22.1 | 1.51 |
| CCCC(=O)NC1=C(Cl)C(=O)c2ccccc2C1=O |  | 26.1 |  | 3.83 |  | 3.83 |  | 6.27 |  |  |  | 13.3 |  | 10.3 |  | 13.8 |  | 17.1 |  | 6.36 |
| C=C1C(=O)O[C@H]2C[C@@H]1CC/C(C)=C/CC/C(C)=C/CC[C@H]2C | 20.6 | 36.6 | 10600 | 24.6 | 30100 | > 83.7 | 5560 | 12.3 |  |  | 7510 | 27.2 | 20600 | 41 | 8540 | 20.9 | 13.4 | 32.7 | 14700 | 45.9 |
| C=C(C)C(=O)O[C@H]1C[C@@]23O[C@@H]2CCC(=C[C@H]2OC(=O)C(=C)[C@H]12)COC3O (stereo partly drawn) |  | > 100 |  | > 100 |  | 56.8 |  | 30.5 |  |  |  | > 100 |  | > 100 |  | > 100 |  | > 100 |  | 36.4 |
| [Cl][Hg][Cl] | 20.4 | 34.7 | 18000 | 32 | 10300 | 24.6 | 1720 | 16 | 9160 | 22.1 | 15700 | 30.2 | 17200 | 40.5 | 17300 | 32 | 16.7 | 31.9 | 5400 | 40.2 |
| O=C(CO[N+](=O)[O-])Nc1ccc(C(=O)/C=C/c2ccc(Cl)cc2)cc1 | 15.4 | 54.9 | 3300 | 17 | 2570 | 6.09 | 1590 | 3.51 | 2130 | 6.61 | 2960 | 11.2 | 4550 | 22.1 | 2740 | 14.8 | 5.82 | 29.2 | 1440 | 2.88 |
| O=C(CP(=O)(O)O)NC(CC(=O)OCc1ccccc1)C(=O)OCc1ccccc1 (stereo not drawn) |  | > 100 |  | > 100 |  | > 100 |  |  |  | > 100 |  | > 100 |  | > 100 |  | > 100 |  | > 100 |  | > 100 |
| COC(=O)[C@@H](C)C[C@H](Cc1ccccc1)NC(=O)c1csc(CC[C@H](C(C)C)N(C)C(=O)[C@@H](NC(=O)[C@H]2CCCCN2C)C(C)C)n1 | 0.19 | 1.56 | 324 | > 33.3 | 190 | 1.53 | 373 | > 33.3 |  |  | 40.7 | 0.17 | 882 | > 33.3 | 383 | > 33.3 | 0.334 | > 33.3 | 164 | > 33.3 |
| COc1cc(C#Cc2ccc(=O)oc2C#Cc2ccccc2)cc(OC)c1OC | 19.1 | 34.5 | 2130 | 4.23 |  |  | 1100 | 2.6 | 2990 | 7.21 | 3400 | 17.8 | 2590 | 7.63 | 4130 | 16.3 | 18.3 | 38.9 | 2040 | 4.28 |
| Fc1ccc2[nH]cc(-c3nonc3-c3c[nH]c4ccc(Br)cc34)c2c1 | 2.7 | 6.38 | 2000 | 8.42 |  |  |  |  | 2340 | 7.85 | 3270 | 12.3 | 1950 | 5.86 | 2050 | 7.68 | 1.94 | 4.2 | 1760 | 3.84 |
| Cc1sc2nc(-c3ccncc3)c(/C=N/N=C(N)N)n2c1C | 25.8 | > 100 | 49700 | > 100 |  |  | 28200 | 78 |  |  | 26200 | > 100 | 48400 | > 100 | 58400 | > 100 | 24.9 | 72.7 | 34700 | > 100 |
| COc1cc(-c2cc3ncccc3c3nc(N)c4cccnc4c23)cc(OC)c1OC |  |  | 769 | 19.1 | 246 | 18.9 | 482 | 15.7 |  |  | 45.5 | 11.2 | 1280 | 51.2 | 579 | > 100 | 0.308 | 15.5 | 468 | > 100 |
| COc1ccc2c(c1)C(=O)c1c-2n(CCCN=[N+]=[N-])c(=O)c2cc(OC)c(OC)cc12 | > 100 | > 100 | 10200 | 25.8 | > 100000 | > 100 | 25100 | > 100 | 66400 | > 100 | > 100000 | > 100 |  |  | 50000 | > 100 | 18 | > 100 | > 100000 | > 100 |
| Cc1ccc(C)c2c1C(O)(C#Cc1ccccc1)c1ccccc1C2(O)C#Cc1ccccc1 (stereo not drawn) | 2.2 | 14.9 | 2840 | > 100 | 2010 | 6.48 | 3440 | > 64.2 |  |  | 2420 | 16.2 | 3230 | > 29.5 | 2420 | > 23.7 | 2.91 | > 100 | 3030 | > 100 |
| COc1ccc2c(C)cc(N/N=C/c3ccc(OC)c4ccccc34)nc2c1 |  |  |  | 15.8 |  | 42 |  | 12.3 |  | 36.3 |  | 24.1 |  | 32.8 |  | 34.1 |  | 32 |  | 22.2 |
| COc1cccc(-c2nc3sccn3c2-c2ccnc(NCCCNS(=O)(=O)c3cccc(F)c3)c2)c1 |  |  | 2220 | 10.6 | 2220 | 11.1 | 2630 | 14.8 | 2230 | 7.24 | 2290 | 5.71 | 2120 | 7.29 | 2120 | 11.6 | 2.37 | 7.48 | 3160 | > 100 |
| C=C1C(O)C2C(=C(CCc3ccccc3)C13CC3)C(=O)C(C)(CO)C2O (stereo not drawn) |  |  | > 100000 | > 100 | > 100000 | > 100 | > 100000 | > 100 | > 100000 | > 100 | > 100000 | > 100 | > 100000 | > 100 | > 100000 | > 100 | > 100 | > 100 | > 100000 | > 100 |
| Cc1ccc(S(=O)(=O)NC(=O)C2C(=O)CC3(CCCCC3)CC2=O)cc1 |  | 80.6 |  | 62.1 |  | 32.2 |  | > 100 |  |  |  | > 100 |  | > 100 |  | 81.3 |  | 67.1 |  | 84.7 |
| COc1ccc(-c2cn[nH]c2-c2cc(OC)c3c(c2)OCO3)cc1 | 0.0632 | 1.13 | 780 | 48.8 | 164 | 0.768 | 599 | 19.2 |  |  | 26.7 | 0.0838 | 430 | 14.7 | 262 | 21.8 | 0.181 | 4.15 | 141 | 23.2 |
| CCC12CCCN(Cc3ccccc3)C1c1c([nH]c3ccccc13)C(C(=O)OC)C2 (stereo not drawn) |  |  |  | > 10 |  | > 10 |  | > 10 |  | > 10 |  | > 10 |  | > 10 |  | > 10 |  | > 10 |  | > 10 |
| Nc1ccccc1C(=O)CC1OC(=O)c2ccccc21 (stereo not drawn) |  | > 100 |  | > 100 |  |  |  | > 100 |  | > 100 |  | > 100 |  |  |  | > 100 |  | > 100 |  | > 100 |
| Cc1cc(=O)oc2cc(OC(=O)N(C)C)c(Cl)cc12 |  | > 100 |  | > 100 |  | > 100 |  | > 100 |  | > 100 |  | > 100 |  | > 100 |  | > 100 |  |  |  | > 100 |
